Reference: US11066399B2, “Ferroportin inhibitors” (Vifor (International) AG, priority 2015, dated 2021)
Marks after values point to notes of the source that are not given here.

Legend:
[1] = target: T1, ferroportin (Fpn) (Mus musculus, UniProt Q9JHI9); test: Hepcidin Internalization Assay (J774); assay type: cell-based; conditions: average (AVE) of multiple measurements; TMR-hepcidin 25 nM, J774 cells
T1 construct: host or cells: J774 mouse macrophage cell line, Fe(III)-NTA induced
T1 sequence (Q9JHI9 1-570): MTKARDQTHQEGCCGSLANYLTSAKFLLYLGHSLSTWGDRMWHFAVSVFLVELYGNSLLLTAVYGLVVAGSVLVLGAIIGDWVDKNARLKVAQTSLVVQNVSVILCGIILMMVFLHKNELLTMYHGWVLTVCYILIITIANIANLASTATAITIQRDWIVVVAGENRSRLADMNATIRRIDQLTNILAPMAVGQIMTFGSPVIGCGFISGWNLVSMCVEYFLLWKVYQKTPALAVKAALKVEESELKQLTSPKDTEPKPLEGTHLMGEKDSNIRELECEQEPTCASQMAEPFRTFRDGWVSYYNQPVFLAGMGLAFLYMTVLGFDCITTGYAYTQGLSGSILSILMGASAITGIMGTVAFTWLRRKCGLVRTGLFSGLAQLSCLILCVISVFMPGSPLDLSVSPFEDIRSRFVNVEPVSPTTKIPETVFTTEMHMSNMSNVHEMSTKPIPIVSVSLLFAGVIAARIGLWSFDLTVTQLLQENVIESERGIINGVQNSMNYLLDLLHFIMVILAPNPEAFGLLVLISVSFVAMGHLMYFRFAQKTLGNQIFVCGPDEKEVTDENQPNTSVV
Text: This cellular assay allows quantification of the binding of hepcidin to ferroportin (Fpn) through microscopic detection of internalization of a fluorescently labeled hepcidin into J774 cells. […] Binding of hepcidin to Fpn triggers internalization and degradation of both hepcidin and Fpn. However, the TMR (6-carboxytetramethylrhodamine) fluorophore attached to hepcidin remains associated with the cell after degradation of the hepcidin peptide backbone. Therefore, microscopic detection of cell-associated TMR fluorescence is a measure of hepcidin binding to Fpn and internalization of hepcidin and Fpn. If TMR-hepcidin is prevented from binding to Fpn, cellular TMR fluorescence remains low (Dürrenberger et al, 2013). The effect of small molecular weight Fpn inhibitor compounds in this assay was evaluated in vitro as described below.
After overnight incubation, cells were washed 3 times with pre-warmed DMEM w/o phenol red, 30 μl/well of DMEM w/o phenol red was added after the final wash and 10 μl/well of dilution series of test compounds were added in triplicates. […] Cells were incubated in a total volume of 50 μl at 37° C. with 5% CO2 for 2 hours, then Hoechst 33342 dye was added to a final concentration of 0.5 μg/ml to stain nuclei and further incubated for 10 min. at 37° C. with 5% CO2. Cells were washed 3 times with PBS and fixed in 100 μl of 4% paraformaldehyde in PBS for 15 min. at room temperature. After removal of the paraformaldehyde solution, cells were washed 3 times with PBS leaving 100 μl per well and the plates were sealed with foil plate seal. TMR (530-550 nm excitation/575-625 nm emission/400 ms exposure time) and Hoechst 33342 (360-370 nm excitation/420-460 nm emission/10 ms exposure time) fluorescence images were acquired using a ScanR plate imager (Olympus) with a 20× high NA objective. Four pictures were acquired per well and fluorescence channel covering ca. 1500 cells per well. The acquired image data was analysed with the ScanR image analysis software. Image analysis included detection of nuclei (Hoechst 33342 fluorescence), identification of cell-associated regions, application of a virtual channel and thresholding for rolling-ball-type background reduction, followed by application of the Sum(Mean) algorithm to measure the TMR fluorescence associated with cells as a quantitative measure for internalized TMR-hepcidin. IC50 values were calculated with the Sum(Mean) raw data using “log(inhibitor) vs. response” curve fitting of Prism 5 software (GraphPad Software Inc., version 5.02).

[2] = test system: b2m−/− mice; test: Correction of hyperferremia in beta2-microglobulin deficient mice; assay type: in vivo, mouse; conditions: for effect on elevated serum iron: b2m−/− mice, 50 mg/kg p.o. for 3 h
Experimental: Female and male homozygous b2m−/− mice were supplied from Jackson Laboratories (B6.129P2-B2mtm1Unc/J, Stock Number: 002087) at age of 6 to 7 weeks and fed standard diet (Harlan Provimi Kliba 3436) ad libitum. Age and gender matched WT C57BL/6 mice are supplied by Charles River. To study the acute effects of ferroportin (Fpn) inhibitors in iron overload b2m−/− mice were treated with compounds or the corresponding amount of vehicle at a volume of 10 ml/kg body weight. Fpn inhibitor compounds were formulated in 0.5% methylcellulose/water or 20% cremophor EL/water and dosed p.o. in mice at 50 mg/kg body weight. WT controls received only vehicle. Three hours later, mice were pre-terminally anesthetized in isoflurane chambers and blood was collected by retro-orbital bleeding. Mice were sacrificed by cervical dislocation and spleens, livers and duodena were harvested and used for biomarker analysis. All experiments have been performed in compliance with license approved by the responsible veterinarian authorities. Serum was isolated by centrifugation of blood into gel-containing microtainers (BD Biosciences) and serum iron was determined by the MULTIGENT Iron assay (Abbott Diagnostics, Cat. 6K95). Four to nine mice per group were used and one-way ANOVA with Bonferroni's multiple comparison test was applied to analyze the statistical differences between the experimental groups.
Blood was collected 1 (#) or 3 (##) hours after oral administration of the indicated doses of Fpn inhibitors to beta2-microglobulin deficient mice and serum iron concentrations were measured. Relative reduction (%) of serum iron levels are shown, which were calculated by subtracting the average of serum iron values of animals dosed with the Fpn inhibitor from that of vehicle-treated animals. The difference in average serum iron values between vehicle and compound treated groups was then divided by the average of serum iron of the vehicle control group and listed as percentage.

[3] = test system: Hbb th3/+ mice; test: Improvement of anemia, ineffective erythropoiesis and iron overload in a mouse model of β-thalassemia intermedia; assay type: in vivo; conditions: % change to vehicle; for Decrease in serum iron: dosed for 3 h
Experimental: The efficacy of Fpn inhibitors was investigated using a mouse model of transfusion-independent β-thalassemia. Mice with heterozygous deletion of β1 and β2 globin genes (called Hbb th3/+ mice) develop transfusion-independent anemia, ineffective erythropoiesis, splenomegaly and secondary iron overload in spleen, liver and kidneys. […] Hbb th3/+ mice were dosed twice daily with either compound at 20 or 60 mg/kg or with methylcellulose (10 ml/kg, Sigma, Cat. 274429) as a vehicle. Between both doses mice had access to drinking water supplemented with 1 mM ^58Fe(II)-sulfate (Vifor Pharma, Batch No. ROR 3096) and 10 mM ascorbic acid (Sigma, Cat. 795437) for 6 h. […] Water without ^58Fe(II)-Sulfate and ascorbic acid was provided during the remaining 18 h. Dosing of Fpn inhibitors or vehicle followed by exposure to iron-containing water was repeated for 20 to 46 days in individual experiments.
Additional hematologic parameters were measured in terminal blood using automated blood cell analyzer.
The inefficient erythropoiesis of Hbb th3/+ mice causes excessive proliferation of erythroid precursors in spleen, leading to splenomegaly.
Erythroferrone is produced by erythrocyte precursors proliferating massively in spleens of Hbb th3/+ mice as a consequence of extramedullar erythropoiesis.
Increased iron demand due to inefficient erythropoiesis and chronically low hepcidin levels in patients with thalassemia causes organ iron loading and associated morbidities, such as hepatocellular carcinoma and heart failure (Rivella S. Haematologica, 2015). Hbb th3/+ mice absorb excessive amounts of iron as a consequence of inadequately low hepcidin levels relative to the high iron content in liver, spleen and kidney and increased ferroportin expression in duodenum (Gardenghi S., Blood, 2007).
Additionally, reactive oxygen species (ROS) were detected in bone marrow cells using a fluorescent indicator, CM-H2DCFDA (Thermo Fisher Scientific, Cat. C6827).
Table 10. Efficacy of Ferroportin inhibitors in a mouse model of thalassemia intermedia (Hbb th3/+ mice). […] Data are expressed as difference to the vehicle control group for hemoglobin and as % change to the vehicle control group for all other parameter shown

[4] = male b2m−/− mice, Dose 60 mg/kg oral, blood collected 3 (##) hours after dosing
[5] = 20 mg/kg twice daily for 20-46 days
[6] = 60 mg/kg twice daily for 20-46 days

O=C(NCc1ncccc1F)c1cnc(C2CN(CCc3nc4c(F)cccc4[nH]3)C2)o1 [Example 3]
IC50 [1]: 170 nM

O=C(NCc1ncccc1F)c1cnc(CCNCc2nc3ccccc3[nH]2)o1 [Example 4]
IC50 [1]: 155 nM

O=C(NCc1ncccc1F)c1cnc(C2CN(CCc3nc4cc(F)ccc4[nH]3)C2)o1 [Example 5]
IC50 [1]: 63 nM

Cc1nc(CCNCCc2nc3ccccc3[nH]2)sc1C(=O)NCc1ncccc1F [Example 7]
IC50 [1]: 400 nM

O=C(NCc1ncccc1F)c1cnc(CCNCCc2nc3ccccc3[nH]2)s1 [Example 8]
IC50 [1]: 240 nM

O=C(NCc1ncccc1F)c1csc(CCNCCc2nc3ccccc3[nH]2)n1 [Example 94]
Serum Iron Reduction (%) ([2]; female b2m−/− mice, Dose 60 mg/kg oral, blood collected 3 (##) hours after dosing): 47%
Serum Iron Reduction (%) [2, 4]: 67%

O=C(NCc1ncccc1F)c1coc(CCNCCc2nc3ccccc3[nH]2)n1 [Example 127]
Serum Iron Reduction (%) ([2]; female b2m−/− mice, Dose 20 mg/kg oral, sampling time not marked): 47*** %
Serum Iron Reduction (%) ([2]; female b2m−/− mice, Dose 60 mg/kg oral, sampling time not marked): 74*** %
Serum Iron Reduction (%) ([2]; male b2m−/− mice, Dose 60 mg/kg oral, sampling time not marked): 83** %
Decrease in 58Fe spleen iron content [3, 5]: 43%
Decrease in RDW [3, 5]: 19%
Decrease in serum erythropoietin [3, 5]: 32%
Increase in hematocrit [3, 5]: 3%
Prevention of liver 58Fe loading [3, 5]: 39%
Decrease in serum iron ([3]; 20 mg/kg): 68%
Decrease in 58Fe spleen iron content [3, 6]: 68%
Decrease in RDW [3, 6]: 25%
Decrease in serum erythropoietin [3, 6]: 33%
Increase in hematocrit [3, 6]: 20%
Prevention of liver 58Fe loading [3, 6]: 59%
Decrease in serum iron ([3]; 60 mg/kg): 81%

O=C(NCc1ncccc1F)c1coc(C2CN(CCc3nc4ccccc4[nH]3)C2)n1 [Example 208]
Serum Iron Reduction (%) ([2]; female b2m−/− mice, Dose 20 mg/kg oral, blood collected 3 (##) hours after dosing): 9%
Serum Iron Reduction (%) ([2]; male b2m−/− mice, Dose 20 mg/kg oral, blood collected 3 (##) hours after dosing): 44%
Serum Iron Reduction (%) [2, 4]: 67** %

O=C(NCc1ncccc1F)c1csc(CCN2Cc3nc4ccccc4n3CC2=O)n1 [Example 275]
IC50 [1]: 26000 nM

O=C(NCc1ncccc1F)c1csc(CCN2CCn3c(nc4ccccc43)C2)n1 [Example 276]
IC50 [1]: 27200 nM

O=C(NCc1ccccn1)c1noc(CCNCCc2nc3ccccc3[nH]2)n1 [Example 278]
IC50 [1]: 476 nM

O=C(NCc1ncccc1F)c1noc(CCNCCc2nc3ccccc3[nH]2)n1 [Example 279]
IC50 [1]: 2010 nM

O=C(NCc1ncccc1F)c1cnc(C2CN(Cc3nc4ccccc4[nH]3)C2)o1 [Example 280]
IC50 [1]: 50000 nM

O=C(NCc1ncccc1F)c1csc(CCNCc2nc3ccccc3[nH]2)n1 [Example Compound No. 40, 2-{2-[(1H-1,3-benzodiazol-2-ylmethyl)amino]ethyl}-N-[(3-fluoropyridin-2-yl)methyl]-1,3-thiazole-4-carboxamide]
effect on elevated serum iron [2]: corrected the elevated serum iron to the levels observed in WT controls

O=C(NCc1ncccc1F)c1csc(CCNCCc2nc3ccccc3[nH]2)n1 [Example Compound No. 94, 2-(2-{[2-(1H-1,3-benzodiazol-2-yl)ethyl]amino}ethyl)-N-[(3-fluoropyridin-2-yl)methyl]-1,3-thiazole-4-carboxamide]
effect on elevated serum iron [2]: corrected the elevated serum iron to the levels observed in WT controls
